The source of these data is publication PMC12597212, “Biaryl Phosphate‐Based Inhibitors of the Transcription Factor STAT4” (Chemmedchem, 2025).

What is called IC50 is the concentration that gives 50% inhibition. A low value points to inhibition by little substance. Usually Ki stands for a measure of affinity in units of concentration, obtained from inhibition or displacement. As a reminder, the Kd is the free concentration of one partner at which half of the binding sites on the other are occupied at equilibrium, for simple one-to-one binding.

In one assay the target is T1, STAT6 (Homo sapiens, UniProt P42226).
T1 sequence (P42226 1-847): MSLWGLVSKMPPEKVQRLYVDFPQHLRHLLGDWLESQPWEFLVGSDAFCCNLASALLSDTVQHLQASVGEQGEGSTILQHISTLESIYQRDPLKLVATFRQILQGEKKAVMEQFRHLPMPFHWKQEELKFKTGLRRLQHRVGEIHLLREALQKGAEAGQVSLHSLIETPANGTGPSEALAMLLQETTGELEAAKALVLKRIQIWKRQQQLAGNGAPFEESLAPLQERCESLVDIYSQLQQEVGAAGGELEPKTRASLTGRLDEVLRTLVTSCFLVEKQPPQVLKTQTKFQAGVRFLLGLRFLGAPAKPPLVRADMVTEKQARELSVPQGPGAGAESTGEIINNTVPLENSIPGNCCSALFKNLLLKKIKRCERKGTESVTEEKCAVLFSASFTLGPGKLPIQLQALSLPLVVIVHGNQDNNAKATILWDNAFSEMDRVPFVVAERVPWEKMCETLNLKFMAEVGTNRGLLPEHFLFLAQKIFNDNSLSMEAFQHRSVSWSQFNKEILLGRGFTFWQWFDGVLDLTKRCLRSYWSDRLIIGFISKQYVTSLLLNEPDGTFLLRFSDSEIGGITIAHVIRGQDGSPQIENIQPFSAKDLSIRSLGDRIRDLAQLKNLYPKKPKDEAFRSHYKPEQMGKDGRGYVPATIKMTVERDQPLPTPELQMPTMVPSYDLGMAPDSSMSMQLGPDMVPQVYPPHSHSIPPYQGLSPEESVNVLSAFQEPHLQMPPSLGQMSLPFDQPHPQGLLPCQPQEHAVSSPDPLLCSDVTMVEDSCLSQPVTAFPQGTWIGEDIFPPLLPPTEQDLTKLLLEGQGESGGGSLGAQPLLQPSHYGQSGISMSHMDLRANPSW
Put plainly: Competitive fluorescence polarization (FP) assay, STAT6. The format is binding. The settings on record: for IC50: 106 nM STAT6, 10 nM tracer peptide; for Ki: Ki calculated from IC50, mean ± SD, n = 3. On the procedure:
(§1) Fluorescence polarization assays
(§2) STAT4; 5-carboxyfluorescein-GpYDKPHVL for STAT1; 5-carboxyfluorescein-GpYLPQTV- […]
(§3) fluorescent-labeled peptide was added. Samples were transferred to 384-well microtiter plates […]
(§4) Experiments were carried out in triplicate. Percent binding was calculated based on a logarithmic curve fit using OriginPro 8G software. Conversion of IC50 values to Ki-values was […]
(§5) Error bars represent standard deviations. […]
(§6) Experiments were carried out in triplicate. […]

The target in a further assay is T2, STAT5a (Homo sapiens, UniProt P42229).
T2 sequence (P42229 1-794): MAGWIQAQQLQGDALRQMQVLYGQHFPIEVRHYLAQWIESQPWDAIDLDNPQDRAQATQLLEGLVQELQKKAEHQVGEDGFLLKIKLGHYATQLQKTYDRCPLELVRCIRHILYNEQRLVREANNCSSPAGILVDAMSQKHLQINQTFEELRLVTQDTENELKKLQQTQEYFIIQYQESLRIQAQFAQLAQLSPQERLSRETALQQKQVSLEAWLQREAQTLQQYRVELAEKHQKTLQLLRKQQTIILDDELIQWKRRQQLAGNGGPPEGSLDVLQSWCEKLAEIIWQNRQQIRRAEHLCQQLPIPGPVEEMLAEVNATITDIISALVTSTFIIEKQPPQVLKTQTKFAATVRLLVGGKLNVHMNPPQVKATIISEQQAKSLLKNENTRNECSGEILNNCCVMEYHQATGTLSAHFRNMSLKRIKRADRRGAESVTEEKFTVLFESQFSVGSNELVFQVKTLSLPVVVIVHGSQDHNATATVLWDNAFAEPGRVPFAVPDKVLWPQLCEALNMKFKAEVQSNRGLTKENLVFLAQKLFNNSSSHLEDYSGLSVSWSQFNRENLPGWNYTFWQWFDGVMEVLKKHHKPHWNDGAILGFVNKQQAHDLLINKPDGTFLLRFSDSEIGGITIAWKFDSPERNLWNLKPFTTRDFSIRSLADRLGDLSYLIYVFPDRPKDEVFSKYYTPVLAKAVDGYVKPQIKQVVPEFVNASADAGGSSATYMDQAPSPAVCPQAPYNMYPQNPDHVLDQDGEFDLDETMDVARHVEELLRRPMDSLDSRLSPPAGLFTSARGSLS
Put plainly: Competitive fluorescence polarization (FP) assay, STAT5a. The format is binding. The settings on record: for IC50: 125-177 nM STAT5a, 10 nM tracer peptide; for Ki: Ki calculated from IC50, mean ± SD, n = 3. On the procedure: as §1, §2, §3, §4, §5, §6

A further assay concerns the target T3, STAT4 (Homo sapiens, UniProt Q14765).
T3 construct: 6xHis; made in house
T3 sequence (Q14765 1-748): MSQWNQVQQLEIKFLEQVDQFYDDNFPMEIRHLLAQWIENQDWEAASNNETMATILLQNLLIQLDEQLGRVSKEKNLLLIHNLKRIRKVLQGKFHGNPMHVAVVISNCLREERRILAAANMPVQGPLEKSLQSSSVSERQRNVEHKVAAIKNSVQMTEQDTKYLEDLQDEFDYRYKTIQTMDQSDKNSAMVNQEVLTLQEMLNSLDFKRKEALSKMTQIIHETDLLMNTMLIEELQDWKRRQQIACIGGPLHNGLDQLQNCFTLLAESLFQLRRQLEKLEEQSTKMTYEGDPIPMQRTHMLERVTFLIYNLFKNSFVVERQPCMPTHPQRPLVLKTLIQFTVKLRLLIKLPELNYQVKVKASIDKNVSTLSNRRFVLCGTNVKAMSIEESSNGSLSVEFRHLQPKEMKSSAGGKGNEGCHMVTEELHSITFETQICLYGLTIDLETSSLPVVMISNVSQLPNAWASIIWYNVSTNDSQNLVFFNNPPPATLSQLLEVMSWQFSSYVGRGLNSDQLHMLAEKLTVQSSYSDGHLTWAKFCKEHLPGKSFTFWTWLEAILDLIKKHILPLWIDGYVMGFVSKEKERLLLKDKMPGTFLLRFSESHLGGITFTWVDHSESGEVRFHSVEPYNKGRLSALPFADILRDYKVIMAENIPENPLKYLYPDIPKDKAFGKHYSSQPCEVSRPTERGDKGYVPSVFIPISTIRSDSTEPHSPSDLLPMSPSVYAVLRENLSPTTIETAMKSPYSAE
Description: Isothermal titration calorimetry (ITC), binding to STAT4. The settings on record: 10 µM STAT4, 100 µM ligand, 25 °C, 10 mM Tris pH 8.0, 50 mM NaCl, 1 % DMSO; n = 3. The method, then: as §3, §4
Error bars represent standard deviations.
Isothermal Titration Calorimetry […]
dialysis tubing with a 50 kDa cut-off. ITC experiments were performed using a VP-ITC Micro […]
ITC buffer (final ligand concentration: 100 µM). 1 % (v/v) DMSO was added to the buffers […]
detection of dilution heat. Proteins were degassed before the experiments using a ThermoVac sample degassing station. […]
site binding model was used for data fitting. Figures were generated using GUSSI. Experiments were carried out in triplicate.
General synthetic methods
Method 1: Suzuki coupling […]
three times with ethyl acetate. The combined organic layers were washed with water, after which they were dried over Na2SO4 and filtered. The volatiles were removed under reduced
On the technique in general: In ITC the heat of successive injections is recorded.

The structures appear in SMILES notation.

`O=P(O)(O)Oc1ccc(-c2ccsc2)cc1` [8a]: at STAT6, the concentration for half-maximal inhibition (IC50) came to 15.8 µM and the Ki is 7.8 ± 0.7 µM. For the same compound, on STAT5a, the IC50 worked out at 41 µM and the Ki is 20 ± 0.2 µM.
Regarding `O=P(O)(O)Oc1ccc(-c2cccs2)cc1` [8b], on STAT6, the IC50 was 19 µM and the inhibition constant Ki is 9.4 ± 0.3 µM. Besides, on STAT5a, the IC50 was 14.8 µM and the Ki was 7.3 ± 0.9 µM.
As for `O=P(O)(O)Oc1ccc(-c2nccs2)cc1` [8c], at STAT6, the IC50 is 112 µM and the Ki was 55 ± 1 µM. Further, on STAT5a, the IC50 is 122 µM and the Ki was 61 ± 3 µM.
Take `Cc1cc(-c2ccc(OP(=O)(O)O)c(F)c2)cs1` [8f]: on STAT6, the IC50 turned out to be 34 µM and the Ki is 17 ± 2 µM. This compound yielded a Kd at STAT4 of 3.1 ± 1 µM. On STAT5a, the IC50 was 28 µM and the Ki was 14 ± 1 µM.
Consider `O=P(O)(O)Oc1ccc2c(c1)Cc1ccccc1-2` [compound 11], for which, at STAT6, the IC50 came out at 23 µM and the Ki was 12 ± 1 µM. On STAT5a, the IC50 turned out to be 43 µM and the Ki is 21 ± 1 µM.
On the same counts, the results for `O=P(O)(O)Oc1ccc2c(c1)oc1ccccc12` [compound 12] are 53 µM, 26 ± 4 µM, 55 µM and 27 ± 1 µM.
